Measurements published in patent US6590123B2, “Aminobenzoic acid derivatives having anti-tumorigenic activity, methods of making and using the same” (Mount Sinai School of Medicine of New York University, priority 1998, dated 2003).

Tests used:
[1] = system: EL4 murine leukemia lymphoma; test: Block of mitosis, morphology by microscopy; assay type: cell-based; set-up: key: +Block of mitosis was observed; −no mitotic blocking; settings: 37° C. for 48 hr
Experimental: All cell lines, with the exception of human SP cells, a biphenotypic leukemic cell line (reference 10 & 11), were obtained from the American Tissue Culture Collection (Rockville, Md.) and were cultured under conditions recommended by the vendor. EL4 murine leukemia lymphoma (as suspension) and B16 mouse melanoma (as monolayer) cell lines were cultivated in RPMI-1640 medium supplemented with 10% fetal bovine serum (FBS), penicillin (250 μ/ml) and streptomycin (250 μml); MOT, a non-tumor proliferative myocardial cell line from rat and NIH 3T3, a non-malignant and proliferative fibroblast cell line from mouse were both cultured as monolayers in Dulbecco's Modified Eagle's Medium with 10% heat inactivated calf serum. CEM, a human acute T-cell leukemic cell line, was cultured as a suspension in Iscove's Dulbecco's Medium with 10% heat inactivated fetal calf serum and antibiotics. PC-3 cells, a human prostate cancer line, was cultured as monolayers in RPMI-1640 with 10% FBS. SP cells were cultured in Minimum Eagle's Medium plus 10% FBS. Human peripheral blood lymphocytes (PBL) were isolated from whole blood of healthy individuals by Ficoll-Hypaque gradient method. Isolated PBL were maintained in RPMI-1640 in the presence of 10% homologous plasma at 37° C. All cells were incubated at 37° C. in 5% C02. Cells in exponential growth were used. […]

[2] = system: repolymerized microtubules; test: Inhibition of microtubule disassembly by spectrophotometry, cell free system; assay type: biochemical, calf; settings: 20 μg/ml (66 μM)
Experimental: Purified tubulin was purchased from Sigma (St. Louis, Mo.). The effects of compounds 6, 7, 8, 9, paclitaxel and vinblastine on the microtubule assembly-disassembly process were determined using conditions recommended by the vendor. For assembly inhibition, 100 μl tubulin solution (500-600 μg protein/ml) was mixed gently with 400 μl reaction buffer containing 0.1 M MES (2-[N-morpholino]ethane sulfonic acid), 1 mM EGTA ([…]-N,N,N′,N′-tetraacetic acid), 0.5 mM MgCl2, 0.1 mM EDTA and 2.5 M gycerol at 37° C. Compounds 6, 7, 8, and 9 were next added to each sample at final concentrations of 10, 10, 1 and 1 μg/ml, respectively. After adding GTP to each sample to a final concentration of 1 mM, the microtubule assembly process was monitored by measuring the change of absorbance (OD) at 350 nm on a spectrophotometer (Ultrospec III, Pharmacia LKB, Uppsala, Sweden). […] Changes of absorbance (OD) were monitored at 350 nm for 30 min until the OD values in the controls returned to the starting level, i.e., when the assembly-disassembly cycle was completed.
Purified tubulin from calf brain was purchased from Sigma (St. Louis, Mo.). The effects of 3-BAABU (3-bromoacetoamido, benzoylurea) on the microtubule assembly-disassembly process were determined using the conditions recommended by the vendor. […]

In the case of `NC(=O)NC(=O)c1cccc(NC(=O)CBr)c1` [Compound 8, 3-Bromoacetoamido, benzoylurea], the “Block of Mitosis” value [1] is reported as “+” and the “effect on microtubular depolymerization” value [2] is reported as “not influenced”.
